{
  "source": "patent US10307411B2",
  "about": "“Use of cotinine in treating or preventing neurogenesis deficits and enhancing neurogenesis” (Department of Veterans Affairs, priority 2014, dated 2019)",
  "key": {"[1]": {"tested_on": "neurogenesis genes in the hippocampus of mice", "experiment": "Neurogenesis and neural stem cell RT-PCR array on hippocampus of mice subjected to forced swimming stress", "type": "in vivo", "from_the_text": "Two-month-old male C57BU6J mice (The Jackson Laboratory, Bar Harbor, Me.), weighing 25-30 g were maintained on a 12-hours light/dark cycle (light on at 07:00) with ad libitum access to food and water and maintained at a regulated temperature of 25±1″C. Upon arrival mice were group-housed and acclimated for 7 days before any intervention.\nMice were randomly divided into three groups as follows: group 1 controls that were not exposed to stress (NES) and treated with vehicle (phosphate buffered saline, PBS); group 2 controls subjected to forced swimming stress (FSB) and treated with vehicle; group 3 subjected to forced swimming stress and treated with cotinine (FSA).\nCotinine ((5S)-1-methyl-5-(3-pyridyl) pyrrolidin-2-one; Sigma-Aldrich Corporation, St. Louis, Mo., USA) solutions were prepared by dissolving the powdered compound in sterile phosphate buffered saline (PBS), and vehicle (PBS). Mice were treated with vehicle or cotinine (5 mg/kg) via gavage. […] All investigators were blind to treatment groups and doses were chosen based on previously studies (Zeitlin, et al., (2012) Cotinine enhances the extinction of contextual fear memory and reduces anxiety after fear conditioning. Behav Brain Res, 228, 284-293.). Treatments were administered for 7 days before the induction of stress. For all animals, treatment continued from the onset of treatment until euthanasia.\nTo induce chronic stress, mice were subjected to repetitive forced swimming (FS) for six consecutive days, for six minutes each day, as described previously (Furukawa-Hibi, et al., (2011) The hydrophobic dipeptide Leu-lie inhibits immobility induced by repeated forced swimming via the induction of BDNF. Behav Brain Res. 2011 Jul. 7; 220(2):271-280). Each mouse was placed in an inescapable transparent plastic cylinder (40 centimeters (cm) high×20 cm in diameter) filled with water to a depth of 30 cm, for six minutes. Water temperature was maintained at 24-25° C. and water was changed between all trials. In all cases, following exposure, animals were retrieved, dried with a hand towel and returned to their home cages. Mice assigned to NES control group were removed from the animal housing facility and taken to the behavioral testing room during the same period of time than FS mice, but remained in their home cages during the FS period. In all experiments, no mice needed assistance to avoid drowning.\nFollowing behavioral experimentation, euthanasia was performed via cervical dislocation under anesthesia with isofluorane (4% induction, 2% maintenance) by investigators not assigned to prior work with the mice blinded to the treatments. Whole brains were collected and immediately stored frozen at −80° C.\nThe hippocampi were dissected on ice and placed into RNAlater tubes (Life Technologies; Thermo Fisher Scientific, Waltham, Mass.). RNAlater is a proprietary solution which protects RNA in tissue samples from degradation to allow for analysis at a later date. RNase free conditions were created and maintained throughout the procedure by washing labware in a 0.1% DEPC solution followed by rinsing with RNase free water. Total RNA extraction and purification was performed using RNeasy Lipid Tissue Extraction Kit (Qiagen N.V., Venlon NL). Sample homogenization was performed using Kontes Pellet Pestle Cordless Motor and/or 20 gauge needle and syringe. Samples were extracted using a Qiazol/Chloroform extraction. The samples were purified on an RNeasy spin column using multiple washes. An on-column DNase incubation was performed in order to remove contaminating DNA. The entire extraction and purification step was performed twice to remove all contaminating DNA for samples ran on the neurogenesis arrays. Samples were eluted in RNase free water.\nNucleic acid quantification was performed on the RNA, to determine how many microliters of sample to add to the cDNA reaction, as the reaction requires a specific concentration of RNA to achieve optimal results. […]"}, "[2]": {"experiment": "Porsolt's forced swim test, depressive-like behavior in rats subjected to CMF chemotherapy", "type": "in vivo, Wistar female rats", "settings": "cotinine 5 mg/kg oral", "description": "Wistar female rats (2-4 months of age, 200-300 g) (n=10/group) were obtained from Harlan laboratories. Rats were housed in pairs, kept at 12 h light/12 h dark cycle and maintained in an air-conditioned room at a temperature of 21±1° C. and relative humidity of 60±10%. Food and water were available ad libitum. All rats were acclimated to the Veterinary Medical Unit for 1 week and handled daily. Weight was recorded every 2 days to assess for dehydration induced by the chemotherapy regime. […]\nThis task was chosen to determine the effect of cotinine on depressive-like behavior is one of the more broadly used to assess potential antidepressant effects of drugs (Porsolt R D, Bertin A, Jalfre M (1977) Behavioral despair in mice: a primary screening test for antidepressants. Arch Int Pharmacodyn Ther 229(2):327-336; Castagne V, Moser P, Roux S, Porsolt R D (2010) Rodent models of depression: forced swim and tail suspension behavioral despair tests in rats and mice. Curr Protoc Neurosci 49:5.8.1-5.8.14). […] The freezing behavior, during 6-min trials, was recorded on video and scored by investigators blinded to the treatment arms. The immobility (freezing) time was recorded during a 6-min forced swim (FS) trial. […] The time in seconds (sec) spent by the mice immobile was scored by two investigators blind to the mice's treatments. […]"}, "17-ketosteroid reductase": {"tested_on": "17-ketosteroid reductase", "settings": "in vitro; cited from earlier work"}, "[3]": {"settings": "stressed mice treated with cotinine compared to stressed mice treated with vehicle"}},
  "data": [
    {"smiles": "CN1C(=O)CC[C@H]1c1cccnc1", "note": "[cotinine, (5S)-1-methyl-5-(3-pyridyl) pyrrolidin-2-one]", "values": [
      {"measurement": "decrease in share of down-regulated neurogenesis genes", "setting": "[1]; FSA versus stressed vehicle-treated, each compared to non-stressed mice", "value": 17, "unit": "%"},
      {"measurement": "neurogenesis genes down-regulated", "setting": "[1]; forced swimming stress + cotinine (FSA) compared to mice not exposed to stress", "value": 56, "unit": "%"},
      {"measurement": "neurogenesis genes analyzed that were up regulated", "setting": "[1]; hippocampi from cotinine-treated stressed mice compared to vehicle-treated stressed mice", "value": 67, "unit": "%"},
      {"measurement": "VEGFa mRNA expression, RT-PCR assay", "setting": "[1]; hippocampus of cotinine-treated FS mice compared to vehicle-treated FS mice (p<0.01)", "value": "up-regulated"},
      {"measurement": "number of neurogenesis genes with differential regulation", "setting": "[1]; results from all three comparisons, 1.3-fold cut-off with opposite effect by cotinine", "value": 15, "unit": "genes"},
      {"measurement": "Errb2 expression up regulation", "setting": "[1]; stressed mice treated with cotinine compared to stress control mice", "value": 1.3, "unit": "fold"},
      {"measurement": "Artn expression up regulation", "setting": "[1]; [3]", "value": 1.2, "unit": "fold"},
      {"measurement": "EGF expression up regulation", "setting": "[1]; [3]", "value": 1.5, "unit": "fold"},
      {"measurement": "Gdnf expression up regulation", "setting": "[1]; [3]", "value": 2.0, "unit": "fold"},
      {"measurement": "VEGFa expression up regulation", "setting": "[1]; [3]", "value": 1.3, "unit": "fold"},
      {"measurement": "depressive-like behavior (immobility), chemotherapy-treated vs chemotherapy and cotinine-treated", "setting": "[2]; CMF-treated rats, p<0.01", "value": "significant reduction"},
      {"measurement": "depressive-like behavior (immobility), vehicle-treated vs cotinine-treated", "setting": "[2]; rats without chemotherapy, p<0.001", "value": "significant reduction"},
      {"measurement": "inhibition of 17-ketosteroid reductase", "setting": "17-ketosteroid reductase", "value": "inhibiting"}
    ]}
  ]
}
